The results in this text go back to ChEMBL document CHEMBL5143516, “Design, synthesis, and biological evaluation of N-(3-cyano-1H-indol-5/6-yl)-6-oxo-1,6-dihydropyrimidine-4-carboxamides and 5-(6-oxo-1,6-dihydropyrimidin-2-yl)-1H-indole-3-carbonitriles as novel xanthine oxidase inhibitors” (Eur J Med Chem, 2022).

The IC50 is the midpoint of a concentration-inhibition curve. High values mean lower potency, low ones higher potency.

The source made the active and inactive calls. The calls are words filed in the database; no cut-off is given here.

In one assay the target is Xanthine dehydrogenase/oxidase (Homo sapiens, UniProt P47989). Briefly: Inhibition of xanthine oxidase (unknown origin) using xanthine as substrate incubated for 15 mins followed by substrate addition by spectrophotometric analysis.
Sequence of Xanthine dehydrogenase/oxidase (P47989 whole entry): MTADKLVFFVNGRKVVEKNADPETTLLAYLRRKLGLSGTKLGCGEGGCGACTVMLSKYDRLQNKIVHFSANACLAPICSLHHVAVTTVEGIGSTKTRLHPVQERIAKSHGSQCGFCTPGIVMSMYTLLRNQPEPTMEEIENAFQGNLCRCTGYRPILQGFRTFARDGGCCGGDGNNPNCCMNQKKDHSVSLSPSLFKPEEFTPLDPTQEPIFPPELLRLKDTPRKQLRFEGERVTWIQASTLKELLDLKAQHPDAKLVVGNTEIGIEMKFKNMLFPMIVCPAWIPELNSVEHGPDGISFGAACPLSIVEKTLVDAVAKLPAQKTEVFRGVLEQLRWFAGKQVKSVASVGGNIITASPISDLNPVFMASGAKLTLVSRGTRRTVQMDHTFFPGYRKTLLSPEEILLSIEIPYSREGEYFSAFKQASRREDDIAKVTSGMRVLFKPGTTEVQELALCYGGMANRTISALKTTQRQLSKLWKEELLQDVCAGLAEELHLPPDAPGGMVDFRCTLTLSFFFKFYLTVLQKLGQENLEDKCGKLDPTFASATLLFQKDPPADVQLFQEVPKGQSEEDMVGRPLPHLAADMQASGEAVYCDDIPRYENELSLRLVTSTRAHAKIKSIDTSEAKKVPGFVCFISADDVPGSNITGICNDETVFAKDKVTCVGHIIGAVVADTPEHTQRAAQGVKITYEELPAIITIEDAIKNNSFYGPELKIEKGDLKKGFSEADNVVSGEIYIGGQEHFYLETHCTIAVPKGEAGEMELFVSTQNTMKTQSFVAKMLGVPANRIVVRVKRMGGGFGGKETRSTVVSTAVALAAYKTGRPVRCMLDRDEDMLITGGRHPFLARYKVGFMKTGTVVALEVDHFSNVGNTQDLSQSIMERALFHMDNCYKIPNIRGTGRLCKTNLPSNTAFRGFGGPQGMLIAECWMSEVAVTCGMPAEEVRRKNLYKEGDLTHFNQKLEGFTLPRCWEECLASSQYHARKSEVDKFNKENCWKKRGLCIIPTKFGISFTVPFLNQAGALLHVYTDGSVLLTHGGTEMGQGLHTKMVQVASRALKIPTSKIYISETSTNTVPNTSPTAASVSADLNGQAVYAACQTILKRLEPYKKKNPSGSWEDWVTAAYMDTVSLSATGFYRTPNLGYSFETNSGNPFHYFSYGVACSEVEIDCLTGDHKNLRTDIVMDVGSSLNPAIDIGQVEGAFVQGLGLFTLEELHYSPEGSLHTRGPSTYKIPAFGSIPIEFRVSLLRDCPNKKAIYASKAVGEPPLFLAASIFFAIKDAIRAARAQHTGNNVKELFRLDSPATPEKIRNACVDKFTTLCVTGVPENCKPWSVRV
In turn, `Cc1nc(-c2ccc(OCC(C)C)c(C#N)c2)sc1C(=O)O` [FEBUXOSTAT] yielded an IC50 of 0.023 µM.

`C=CCn1cc(C#N)c2ccc(NC(=O)c3cc(=O)[nH]cn3)cc21` yielded an IC50 greater than 10 µM.

`CC(C)n1cc(C#N)c2ccc(NC(=O)c3cc(=O)[nH]cn3)cc21` showed an IC50 greater than 10 µM.

`CC(C)(C)c1ccc(Cn2cc(C#N)c3cc(NC(=O)c4cc(=O)[nH]cn4)ccc32)cc1` gave a concentration for half-maximal inhibition (IC50) greater than 10 µM.

For the compound `Cc1nc(C(=O)Nc2ccc3c(C#N)cn(C4CCCC4)c3c2)cc(=O)[nH]1`, the half-maximal inhibitory concentration (IC50) is greater than 10 µM.

The compound `CC(C)=CCn1cc(C#N)c2ccc(NC(=O)c3cc(=O)[nH]cn3)cc21` showed an IC50 greater than 10 µM.

Compound `N#Cc1cn(CC2CC2)c2cc(NC(=O)c3cc(=O)[nH]cn3)ccc12` yielded an IC50 greater than 10 µM.

In turn, `CC(C)Cn1cc(C#N)c2ccc(NC(=O)c3cc(=O)[nH]cn3)cc21` yielded an IC50 greater than 10 µM.

For `COc1ccnc(-c2ccc3c(c2)c(C#N)cn3C(C)C)n1`, the half-inhibitory concentration (IC50) was greater than 10 µM.

The compound `N#Cc1cn(C2CCCC2)c2cc(NC(=O)c3cc(=O)[nH]cn3)ccc12` gave an IC50 greater than 10 µM.

The next assay deals with Rattus norvegicus. Briefly: Anti-hyperuricemic activity against potassium oxonate-induced acute hyperuricemia Sprague-Dawley rat model assessed as reduction in serum uric acid level at 10 mg/kg, po pretreated with potassium oxonate for 1 hr followed by compound treatment and measured after 8 hrs. It counts as functional, organism-based.
For the compound `N#Cc1cn(C2CCCC2)c2ccc(NC(=O)c3cc(=O)[nH]cn3)cc12`, the result was Active.

In the case of `Cc1nc(-c2ccc(OCC(C)C)c(C#N)c2)sc1C(=O)O` [FEBUXOSTAT], the outcome was Active.

As for `Oc1ncnc2[nH]ncc12`, the result was Active.

In the case of `CC(C)n1cc(C#N)c2cc(-c3nccc(O)n3)ccc21`, the outcome was Active.
